Data as given in article PMC6884456, “Supreme activity of gramicidin S against resistant, persistent and biofilm cells of staphylococci and enterococci” (Scientific Reports, 2019).
Where a SMILES comes first, the peptide text is derived from it. Where no end group is shown, it is not given here. [ ]: non-standard residue; d: D form. Orn = NCCC[C@H](N)C(=O)O

Tests used:
E. faecalis TRE1 = type: cell-based, Enterococcus faecalis; details: TRE1
Experimental: (§5) MBC was determined directly after the MIC evaluation. The 10 µl samples of all 8 dilution rows in the microtiter plates were spotted on square Mueller-Hinton agar plates and incubated overnight at 37 °C and 5% CO2. The MBC was determined as the concentration at which no bacterial colonies were obtained on the two parallel spotted plates.

S. aureus DSM 1104 SCV [1] = type: cell-based, Staphylococcus aureus; details: spotted from MIC plates on Mueller-Hinton agar, overnight, no colonies
Experimental: MBC was determined directly after the MIC evaluation.

Danio rerio embryos = experiment: Acute toxicity in Danio rerio embryos; type: in vivo; details: zebrafish embryos 72 hpf, E3 medium, heart beat; for 1h LD50: 1 hour exposure; for 3h LD50: 3 hours exposure
Experimental: Experiments were performed in accordance with the relevant OECD testing guidelines[73] and German animal protection standards. Wild type D. rerio embryos were obtained at the European Zebrafish Resource Center (Karlsruhe). Fertilized eggs (6 hpf) were raised in 4 ml of embryonic medium (E3) at 28 °C until 72 hpf (6-well plate, 20 eggs/well). Embryos were transferred into flat-bottom glass vials (E3, 1 ml, 15–20 embryos/vial). Peptides were added as 20 µl aliquots in 10% dimethyl sulfoxide in serial 2-fold dilutions. Toxicity was expressed as the concentration at which 50% of the embryos were visually observed to die (measured at 1 and 3 hours exposure) by identifying the heart beat.

E. faecalis TRE4 = type: cell-based, Enterococcus faecalis; details: TRE4
Experimental: as §5

physchem = experiment: physchem
Experimental: (§1) HPLC was performed on an Agilent 1100 system with an ultraviolet diode array detector. […] Binding measurements were performed using Regis Technologies IAM.PC.DD2 (100 × 4.6 mm), HiChrom Chiralpak-HSA (50 × 3 mm) and HiChrom Chiralpak-AGP (50 × 3 mm) columns. […] Retention times were converted to log k and % binding, using calibration routines described in[72].

S. aureus DSM 1104 SCV [2] = type: cell-based, Staphylococcus aureus; details: for MIC: S. aureus DSM 1104 SCV, Mueller-Hinton broth, 22 h + 2 h resazurin, 37 °C, 5% CO2, three parallels
Experimental: For the determination of MIC, the standard broth microdilution procedure[45] was used with a slight modification[29]. Since the peptide stock solutions were prepared in 50% ethanol, the first rows of the 96-well microtiter plates were filled with 50 µl of 2 × concentrated Mueller-Hinton broth to reestablish the normal broth concentration after the addition of 50 µl peptide solutions. The MIC was determined as the lowest concentration that inhibited bacterial growth, judging from bacterial respiration in three parallels for each antibiotic. After incubation of the plates for 22 hours, the redox indicator resazurin (Sigma-Aldrich) was added to the wells (20 µl, 80 µM). The plates were incubated another 2 hours at 37 °C and 5% CO2. Respiration was determined as the difference in the absorption at 570 nm to 600 nm, using a microplate reader FLASHScan 550 (Analytik Jena).

E. faecium VRE1 = type: cell-based, Enterococcus faecium; details: VRE1
Experimental: as §5

S. aureus DSM 1104 SCV [3] = type: cell-based, Staphylococcus aureus; details: value in parentheses
Experimental: (§2) This parameter quantifies the ability of the peptides to prevent biofilm outgrowth.
(§3) After co-incubation with peptides at 37 °C and 5% CO2 without agitation for 24 hours, the planktonic cells were washed, and Crystal violet staining was applied.

[4] = system: α1-acid glycoprotein (AGP); experiment: AGP binding, biomimetic chromatography
Experimental: as §1

subtilisin = details: serine protease isolated from B. subtilis; cited from earlier work
Source text: This intrinsic cell-uptake activity has already been explored in eukaryotic cells to specifically target mitochondria with GS derivatives. In the context of prokaryotic cells, together with the ability to bind certain nucleotides and small phosphorylated molecules[29]–[33], GS thus seems to be capable ...

enterococci = type: cell-based, Enterococcus faecalis, Enterococcus faecium; details: 22 h
S. aureus MRSA9 SCV = details: Mueller-Hinton broth, 22 h + 2 h resazurin, 37 °C, 5% CO2, three parallels
Experimental: (§4) For the determination of MIC, the standard broth microdilution procedure[45] was used with a slight modification. Since the peptide stock solutions were prepared in 50% ethanol, the first rows of the 96-well microtiter plates were filled with 50 µl of 2 × concentrated Mueller-Hinton broth to reestablish the normal broth concentration after the addition of 50 µl peptide solutions. The MIC was determined as the lowest concentration that inhibited bacterial growth, judging from bacterial respiration in three parallels for each antibiotic. After incubation of the plates for 22 hours, the redox indicator resazurin (Sigma-Aldrich) was added to the wells (20 µl, 80 µM). The plates were incubated another 2 hours at 37 °C and 5% CO2. Respiration was determined as the difference in the absorption at 570 nm to 600 nm, using a microplate reader FLASHScan 550 (Analytik Jena).

S. aureus MRSA8 SCV [5] = details: Mueller-Hinton broth, 22 h + 2 h resazurin, 37 °C, 5% CO2, three parallels
Experimental: as §4

S. aureus MRSA538 SCV = details: Mueller-Hinton broth, 22 h + 2 h resazurin, 37 °C, 5% CO2, three parallels
Experimental: as §4

E. faecalis WW6 [6] = type: cell-based, Enterococcus faecalis; details: WW6
Experimental: as §5

E. faecalis TRE2 [7] = type: cell-based, Enterococcus faecalis; details: TRE2
Experimental: as §5

[8] = molecular target: human serum albumin (HSA) (Homo sapiens, UniProt P02768); experiment: HSA binding, biomimetic chromatography
Chain of human serum albumin (HSA) (P02768 25-609): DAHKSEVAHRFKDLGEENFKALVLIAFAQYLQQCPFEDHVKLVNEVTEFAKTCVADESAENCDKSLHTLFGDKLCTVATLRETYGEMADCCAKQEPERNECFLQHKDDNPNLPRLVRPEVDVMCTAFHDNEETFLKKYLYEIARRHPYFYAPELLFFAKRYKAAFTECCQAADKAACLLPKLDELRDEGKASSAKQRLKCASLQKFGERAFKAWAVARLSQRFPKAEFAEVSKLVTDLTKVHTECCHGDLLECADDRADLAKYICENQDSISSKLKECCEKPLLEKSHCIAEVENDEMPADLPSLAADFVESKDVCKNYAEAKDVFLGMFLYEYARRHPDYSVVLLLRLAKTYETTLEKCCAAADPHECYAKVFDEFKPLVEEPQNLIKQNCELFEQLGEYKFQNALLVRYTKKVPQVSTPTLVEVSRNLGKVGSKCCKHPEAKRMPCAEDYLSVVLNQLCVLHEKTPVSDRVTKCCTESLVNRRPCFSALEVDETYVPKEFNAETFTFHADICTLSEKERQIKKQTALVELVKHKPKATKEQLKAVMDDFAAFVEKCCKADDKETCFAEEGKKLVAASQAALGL
Experimental: as §1

E. faecalis DSM 2570 [9] = type: cell-based, Enterococcus faecalis; details: DSM 2570
Experimental: as §5

S. aureus MRSA9 = type: cell-based, Staphylococcus aureus; details: MRSA9
Experimental: as §5

E. faecium VRE2 = type: cell-based, Enterococcus faecium; details: VRE2
Experimental: as §5

E. faecalis WW4 = type: cell-based, Enterococcus faecalis; details: WW4
Experimental: as §5

human erythrocytes = experiment: Haemolysis assay; type: cell-based; details: red cells of human
Experimental: Haemolytic activity was determined with a serial 2-fold dilution assay. Citrate phosphate dextrose-stabilized human erythrocyte suspensions were obtained from Karlsruhe Municipal Hospital. […] The mixture was pelleted (13 000 rpm, 10 min, 4 °C), and the absorbance of the supernatant was recorded at 540 nm vs. reaction buffer. The extent of haemolysis was related to the action of 0.1% Triton X-100 (100%).

E. faecalis DSM 2570 [10] = details: DSM 2570, 24 h
Experimental: as §2, §3

S. aureus DSM 1104 [11] = details: DSM 1104, 24 h
Experimental: as §2, §3

E. faecalis WW6 [12] = details: WW6, 24 h
Experimental: as §2, §3

S. aureus MRSA8 SCV [13] = details: value in parentheses
Experimental: as §2, §3

E. faecalis TRE2 [14] = details: TRE2, 24 h
Experimental: as §2, §3

S. aureus MRSA3 = type: cell-based, Staphylococcus aureus; details: MRSA3
Experimental: as §5

S. aureus DSM 1104 [15] = type: cell-based, Staphylococcus aureus; details: DSM 1104
Experimental: as §5

S. aureus MRSA4 = type: cell-based, Staphylococcus aureus; details: MRSA4
Experimental: as §5

[16] = system: S. aureus DSM 1104 SCV biofilms; experiment: Regrowth from pregrown biofilms on hydroxyapatite discs; type: cell-based, Staphylococcus aureus; details: 30 h on hydroxyapatite discs, 400 µg/ml, 18 h, regrowth 24 h in Todd-Hewitt broth
Experimental: To characterize the viability of the biofilm cells, HAD with pregrown biofilms were exposed for 18 hours to supra-MBIC90 concentrations of the AMP, and - after washing - were placed into fresh TH broth. This procedure serves to determine possible planktonic regrowth from the cells that survived the treatment.
Biofilms were grown on standardized hydroxyapatite discs (3D Biotek). The discs were placed in 24-well microtiter plates and inoculated with a cell suspension from the overnight stationary culture, grown in Todd-Hewitt broth and diluted to OD550 = 0.2. After 30 hours of growth at 37 °C without agitation, the discs were placed for 18 hours in solutions containing 400 µg/ml of peptides, dissolved in 10% dimethyl sulfoxide and 150 mM sodium phosphate buffer (pH 7.2). For the control experiments and conventional antibiotics, pure sodium phosphate buffer was used. After the treatment, discs were washed with sodium phosphate buffer, placed into 1 ml of Todd-Hewitt broth and incubated at 37 °C with agitation at 200 rpm for 24 hours.

Row | Compound | MBC (E. faecalis TRE1) | 1h LD50 (Danio rerio embryos) | 3h LD50 (Danio rerio embryos) | MBC (E. faecalis TRE4) | chromatographic logD (physchem; pH 2.6) | chromatographic logD (physchem; pH 7.4) | chromatographic logD (physchem; pH 10.5) | MIC (S. aureus DSM 1104 SCV [2]) | MBC (E. faecium VRE1) | MBIC90 (S. aureus DSM 1104 SCV [3]) | MIC (S. aureus MRSA9 SCV) | MIC (S. aureus MRSA8 SCV [5]) | MBC (E. faecalis WW6 [6]) | MBC (E. faecalis TRE2 [7]) | MBC (E. faecalis DSM 2570 [9]) | MBC (S. aureus MRSA9) | MBC (E. faecium VRE2) | MBC (E. faecalis WW4) | Haemolysis at 5 μM (human erythrocytes) | Haemolysis at 10 μM (human erythrocytes) | further results
1 | CC(C)C[C@@H]1NC(=O)[C@H](CCCN)NC(=O)[C@H](C(C)C)NC(=O)[C@@H]2CCCN2C(=O)[C@@H](Cc2ccccc2)NC(=O)[C@H](CC(C)C)NC(=O)[C@H](CCCN)NC(=O)[C@H](C(C)C)NC(=O)[C@@H]2CCCN2C(=O)[C@@H](Cc2ccccc2)NC1=O [GS, gramicidin S] (cyclo(V[Orn]L[dF]PV[Orn]L[dF]P)) | 16 (14) µg/ml | 8 µg/mL | 5 µg/mL | 8 (7) µg/ml | 1.5 | 3.51 | 7.52 | 4 (4) µg/ml | 8 (7) µg/ml | 14 µM | 4 (4) µg/ml | 4 (4) µg/ml | 16 (14) µg/ml | 16 (14) µg/ml | 8 (7) µg/ml | 16 (14) µg/ml | 8 (7) µg/ml | 16 (14) µg/ml | 7% | 54% | MBC (S. aureus DSM 1104 SCV [1]): 8 (7) µg/ml; Bound AGP ([4]; Chiralpak-AGP column, 50 mM ammonium acetate pH 7.4, 0–35% 2-propanol gradient, calibrated retention times, UV): 92.92%; log k AGP ([4]; Chiralpak-AGP column, pH 7.4, 0–35% 2-propanol gradient, value in parentheses): 1.06; Degradation by protease (subtilisin): effective in degrading; MIC against enterococci (enterococci): approximately 8 µg/ml; MIC (S. aureus MRSA538 SCV): 8 (7) µg/ml; Bound HSA ([8]; Chiralpak-HSA column, 50 mM ammonium acetate pH 7.4, 0–35% 2-propanol gradient, calibrated retention times, UV): 97.45%; log k HSA ([8]; Chiralpak-HSA column, pH 7.4, 0–35% 2-propanol gradient, value in parentheses): 1.44; MBIC90 (E. faecalis DSM 2570 [10]): 7 µM; MBIC90 (S. aureus DSM 1104 [11]): 4 µM; MBIC90 (E. faecalis WW6 [12]): 14 µM; MBIC90 (S. aureus MRSA8 SCV [13]): 4 µM; MBIC90 (E. faecalis TRE2 [14]): 14 µM; MBC (S. aureus MRSA3): 16 (14) µg/ml; MBC (S. aureus DSM 1104 [15]): 8 (7) µg/ml; MBC (S. aureus MRSA4): 16 (14) µg/ml
2 | FVQWFSKFLGRIL-NH2 [TL, temporin L] | 32 (20) µg/ml | 7 µg/mL | 7 µg/mL | 32 (20) µg/ml | 0.65 | 2.92 | 4.95 | 8 (5) µg/ml | 16 (10) µg/ml | 20 µM | 8 (5) µg/ml | 8 (5) µg/ml | 32 (20) µg/ml | 32 (20) µg/ml | 16 (10) µg/ml | 32 (20) µg/ml | 16 (10) µg/ml | 32 (20) µg/ml | 57% | 99% | log k AGP ([4]; pH 7.4): 1.23; log k HSA ([8]; pH 7.4): 1.68; MBIC90 (E. faecalis DSM 2570 [10]): 39 µM; MBIC90 (S. aureus DSM 1104 [11]): 5 µM; MBIC90 (E. faecalis WW6 [12]): 78 µM; MBIC90 (S. aureus MRSA8 SCV [13]): 5 µM; MBIC90 (E. faecalis TRE2 [14]): 78 µM; MBC (S. aureus MRSA3): 32 (20) µg/ml; MBC (S. aureus DSM 1104 [15]): 16 (10) µg/ml; MBC (S. aureus MRSA4): 32 (20) µg/ml
3 | Cc1onc(-c2ccccc2)c1C(=O)N[C@@H]1C(=O)N2[C@@H]1SC(C)(C)[C@@H]2C(=O)O [OXA, oxacillin] | – | – | – | – | – | – | – | – | – | – | – | – | – | – | – | – | – | – | – | – | Concentration effective against the planktonic cells (SI Table S1) (S. aureus DSM 1104 SCV [2]; DSM 1104 SCV planktonic cells, standard broth microdilution): 0.25 µg/mL; Biofilm regrowth after treatment [16]: tolerant
